Assay results taken from patent US20230373985A1 (Origenis Gmbh, priority 2020, published 2023).

What was measured:
[1] = target: T1, wt human TYK2, catalytic site (Homo sapiens, UniProt P29597); test: HTRF KinEASE assay, TYK2; assay type: biochemical; settings: 1 μM ATP; read-out: IC50, Activity Toward TYK2
T1 construct: wt human TYK2, catalytic site; purchased SignalChem
T1 sequence (P29597 897-1176 limits assumed): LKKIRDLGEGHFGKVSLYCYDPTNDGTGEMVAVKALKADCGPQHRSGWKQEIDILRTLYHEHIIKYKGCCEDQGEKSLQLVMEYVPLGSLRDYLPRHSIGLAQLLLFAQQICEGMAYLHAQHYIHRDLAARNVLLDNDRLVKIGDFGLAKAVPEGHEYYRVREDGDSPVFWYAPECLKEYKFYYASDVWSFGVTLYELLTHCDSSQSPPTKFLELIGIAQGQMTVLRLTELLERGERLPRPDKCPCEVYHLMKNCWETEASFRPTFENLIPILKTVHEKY
Summary of the method: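 Kinase reaction run at room temperature for at least 30 min: 2 nM TYK2 with 1 μM ATP, or 1 nM JAK2 with 100 μM ATP, each with 1 μM biotin-TK substrate. Phosphorylation detected by HTRF (60 min antibody/XL665) and evaluated from emission ratios.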

[2] = target: T2, wt human LRRK2, catalytic site (Homo sapiens, UniProt Q5S007); test: TR-FRET LanthaScreen Eu Kinase Binding Assay, LRRK2 wt; settings: one range stated for wt and G2019, read-out: IC50, Activity Toward LRRK2(Wt)
T2 construct: 5 nM wt human LRRK2, catalytic site; purchased ThermoFisher
Protocol: (§1) The basic protocol for TR-FRET LanthaScreen Eu Kinase Binding Assay inhibitor studies were performed as follows. LanthaScreen Kinase Binding Assays (ThermoFisher/USA) to evaluate inhibitors were performed by addition of 5 μL of test compound in corresponding DMSO dilutions/5 μl of kinase/antibody mixture, 5 μL of tracer into 384 well small volume plates. After incubation for 1 hour at room temperature, plates were read. Data analysis of emission ratios was according LanthaScreen Eu Kinase Binding Assay protocol.
(§2) Kinase and assay components were adjusted to final concentrations according to kit protocol. For LRRK2: 5 nM wt human LRRK2, catalytic site, or G2019S human LRRK2, catalytic site (ThermoFisher/USA), 2 nM Eu-Anti-GST Antibody, 10 nM Kinase Tracer 236 in 1× Kinase Buffer A. For NUAK1: 8 nM wt human NUAK1, full length (ThermoFisher/USA), 2 nM Eu-Anti-His Antibody, 5 nM Kinase Tracer 236 in 1× Kinase Buffer A.

[3] = target: T3, G2019S human LRRK2, catalytic site (Homo sapiens, UniProt Q5S007, G2019S); test: TR-FRET LanthaScreen Eu Kinase Binding Assay, LRRK2 G2019S; settings: LRRK2(G2019); one range stated for wt and G2019; read-out: IC50, Activity Toward LRRK2(G2019)
T3 construct: G2019S human LRRK2, catalytic site; purchased ThermoFisher
Protocol: as §1, §2

[4] = target: T4, wt human JAK1, catalytic site (Homo sapiens, UniProt P23458); test: HTRF KinEASE assay, JAK1; assay type: biochemical; settings: 2.5 μM ATP; read-out: IC50, Activity Toward JAK1
T4 construct: wt human JAK1, catalytic site; purchased ThermoFisher
Summary of the method: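 Compounds in DMSO dilution were mixed with kinase, biotin-TK substrate and ATP and reacted for ≥30 min at room temperature. Detection reagents (antibody, streptavidin-XL665) were read 60 min later as HTRF, with emission ratios analysed per KinEASE protocol.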

T4 sequence (P23458 875-1153 limits assumed): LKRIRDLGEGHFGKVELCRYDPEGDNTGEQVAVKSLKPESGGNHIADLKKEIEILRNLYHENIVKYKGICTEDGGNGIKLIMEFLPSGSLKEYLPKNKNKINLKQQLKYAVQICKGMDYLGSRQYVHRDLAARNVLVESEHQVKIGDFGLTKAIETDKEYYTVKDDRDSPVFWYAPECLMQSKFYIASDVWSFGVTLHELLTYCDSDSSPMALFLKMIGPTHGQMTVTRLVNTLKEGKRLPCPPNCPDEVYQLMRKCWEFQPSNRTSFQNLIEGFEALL
T2 sequence (Q5S007 970-2527 limits assumed): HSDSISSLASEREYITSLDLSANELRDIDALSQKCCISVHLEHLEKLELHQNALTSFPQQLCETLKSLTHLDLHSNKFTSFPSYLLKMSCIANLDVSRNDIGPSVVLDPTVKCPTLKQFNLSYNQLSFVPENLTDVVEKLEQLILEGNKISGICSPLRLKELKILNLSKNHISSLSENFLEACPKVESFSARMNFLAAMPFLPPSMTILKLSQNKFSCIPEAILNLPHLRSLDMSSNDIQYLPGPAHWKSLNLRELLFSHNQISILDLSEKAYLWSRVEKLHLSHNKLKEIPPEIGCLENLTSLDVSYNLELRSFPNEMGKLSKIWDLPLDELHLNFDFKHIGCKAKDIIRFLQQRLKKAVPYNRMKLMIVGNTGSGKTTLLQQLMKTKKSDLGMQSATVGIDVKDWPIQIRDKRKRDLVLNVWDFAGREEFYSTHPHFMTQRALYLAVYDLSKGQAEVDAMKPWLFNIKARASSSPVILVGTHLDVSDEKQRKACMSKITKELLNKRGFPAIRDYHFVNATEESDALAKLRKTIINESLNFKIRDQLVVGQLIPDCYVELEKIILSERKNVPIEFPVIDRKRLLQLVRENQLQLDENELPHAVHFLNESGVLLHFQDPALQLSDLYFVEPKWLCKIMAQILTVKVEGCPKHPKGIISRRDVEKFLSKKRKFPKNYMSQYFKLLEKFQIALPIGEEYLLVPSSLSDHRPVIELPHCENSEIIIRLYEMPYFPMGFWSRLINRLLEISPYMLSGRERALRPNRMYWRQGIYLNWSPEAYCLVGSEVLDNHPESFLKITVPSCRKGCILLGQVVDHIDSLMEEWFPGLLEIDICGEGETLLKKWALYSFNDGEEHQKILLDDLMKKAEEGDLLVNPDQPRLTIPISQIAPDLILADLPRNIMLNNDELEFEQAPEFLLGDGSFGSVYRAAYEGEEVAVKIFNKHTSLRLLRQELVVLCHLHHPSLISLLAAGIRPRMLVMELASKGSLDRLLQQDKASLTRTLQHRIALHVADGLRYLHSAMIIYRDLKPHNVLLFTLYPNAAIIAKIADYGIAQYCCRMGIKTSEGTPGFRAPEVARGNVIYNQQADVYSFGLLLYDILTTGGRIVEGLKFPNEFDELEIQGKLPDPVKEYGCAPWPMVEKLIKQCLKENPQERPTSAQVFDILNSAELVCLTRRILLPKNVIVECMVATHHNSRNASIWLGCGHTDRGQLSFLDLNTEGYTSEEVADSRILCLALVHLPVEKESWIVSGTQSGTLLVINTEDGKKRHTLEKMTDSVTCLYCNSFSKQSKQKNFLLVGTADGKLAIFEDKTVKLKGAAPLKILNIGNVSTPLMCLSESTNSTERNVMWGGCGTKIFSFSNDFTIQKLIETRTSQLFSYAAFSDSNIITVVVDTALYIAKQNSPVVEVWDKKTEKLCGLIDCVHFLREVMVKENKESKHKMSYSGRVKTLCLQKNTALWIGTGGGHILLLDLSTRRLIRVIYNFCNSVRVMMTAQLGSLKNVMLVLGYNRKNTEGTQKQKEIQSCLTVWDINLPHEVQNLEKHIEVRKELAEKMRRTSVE
T3 sequence (Q5S007 970-2527 G2019S limits assumed): as the sequence (Q5S007 970-2527 limits assumed) above, with G1050S counted along it

Row | SMILES | IC50 [1] [nM] | IC50 [2] [nM] | IC50 [3] [nM] | IC50 [4] [nM]
1 | Cc1ccnc(Nc2cn(-c3c(F)cccc3F)nc2C(N)=O)c1 [compound 10, 1-(2,6-difluorophenyl)-4-((4-methylpyridin-2-yl)amino)-1H-pyrazole-3-carboxamide] | 100 to 1000 | 100 to 1000 | 100 to 1000 | 
2 | CC(C)(C)NC(=O)c1ccc(Nc2cn(-c3c(F)cccc3F)nc2C(N)=O)cn1 [compound 23, N-(tert-butyl)-5-((3-carbamoyl-1-(2,6-difluorophenyl)-1H-pyrazol-4-yl)amino)picolinamide] | 100 to 1000 | 100 to 1000 | 100 to 1000 | 
3 | CCNC(=O)c1ccc(Nc2cn(-c3c(Cl)cccc3Cl)nc2C(N)=O)cc1 [compound 34, 1-(2,6-dichlorophenyl)-4-((4-(ethylcarbamoyl)phenyl)amino)-1H-pyrazole-3-carboxamide] | 10 to 100 | 100 to 1000 | 100 to 1000 | 10 to 100
4 | CC(C)(C)OC(=O)N1CCCC(NC(=O)c2ccc(Nc3cn(-c4c(F)cccc4Cl)nc3C(N)=O)cc2)C1 (centres unmarked) [compound 37, tert-butyl_3-(4-((3-carbamoyl-1-(2-chloro-6-fluorophenyl)-1H-pyrazol-4-yl)amino)benzamido)piperidine-1-carboxylate] | 100 to 1000 | 100 to 1000 | 100 to 1000 | 100 to 1000
5 | CCNC(=O)c1ccc(Nc2cn(-c3c(F)cccc3Cl)nc2C(N)=O)cc1 [compound 40, 1-(2-chloro-6-fluorophenyl)-4-((4-(ethylcarbamoyl)phenyl)amino)-1H-pyrazole-3-carboxamide] | 10 to 100 | 100 to 1000 | 100 to 1000 | 10 to 100
6 | CC(C)(C)C(=O)c1ccc(Nc2cn(-c3c(F)cccc3Cl)nc2C(N)=O)cc1 [compound 42, 1-(2-chloro-6-fluorophenyl)-4-((4-pivaloylphenyl)amino)-1H-pyrazole-3-carboxamide] | < 10 | 100 to 1000 | 100 to 1000 | < 10
7 | NC(=O)c1nn(-c2c(Cl)cccc2Cl)cc1Nc1ccc(C(=O)N2CC3(CCC3)C2)cc1 [compound 46, 4-((4-(2-azaspiro[3.3]heptane-2-carbonyl)phenyl)amino)-1-(2,6-dichlorophenyl)-1H-pyrazole-3-carboxamide] | < 10 | 100 to 1000 | 100 to 1000 | < 10
8 | COc1ccccc1-c1ccc(Nc2cn(-c3c(Cl)cccc3Cl)nc2C(N)=O)cn1 [compound 344, 1-(2,6-dichlorophenyl)-4-((6-(2-methoxyphenyl)pyridin-3-yl)amino)-1H-pyrazole-3-carboxamide] | 100 to 1000 | 100 to 1000 | 100 to 1000 | 
9 | COC(=O)Cn1cc(Nc2cn(-c3c(Cl)cccc3Cl)nc2C(N)=O)cn1 [compound 462, methyl_2-(4-((3-carbamoyl-1-(2,6-dichlorophenyl)-1H-pyrazol-4-yl)amino)-1H-pyrazol-1-yl)acetate] | 100 to 1000 |  |  | 10 to 100
10 | CC1(C)CN(C(=O)c2ccc(Nc3cn(-c4c(Cl)cccc4Cl)nc3C(N)=O)cn2)C1 [compound 464, 1-(2,6-dichlorophenyl)-4-((6-(3,3-dimethylazetidine-1-carbonyl)pyridin-3-yl)amino)-1H-pyrazole-3-carboxamide] | 10 to 100 |  |  | 100 to 1000
11 | N=S1(=O)CCN(C(=O)c2ccc(Nc3cn(-c4c(Cl)cccc4Cl)nc3C(N)=O)cc2)CC1 [compound 468, 1-(2,6-dichlorophenyl)-4-((4-(1-imino-1-oxidothiomorpholine-4-carbonyl)phenyl)amino)-1H-pyrazole-3-carboxamide] | < 10 |  |  | < 10
12 | NC(=O)c1nn(-c2c(Cl)cccc2Cl)cc1Nc1cnn(CC(=O)N2CCS(=O)(=O)CC2)c1 [compound 469, 1-(2,6-dichlorophenyl)-4-((1-(2-(1,1-dioxidothiomorpholino)-2-oxoethyl)-1H-pyrazol-4-yl)amino)-1H-pyrazole-3-carboxamide] | 10 to 100 |  |  | 10 to 100
13 | NC(=O)c1nn(-c2c(Cl)cccc2Cl)cc1Nc1ccc(-c2nnc3cccc(C(F)(F)F)n23)nc1 [compound 471, 1-(2,6-dichlorophenyl)-4-((6-(5-(trifluoromethyl)-[1,2,4]triazolo[4,3-a]pyridin-3-yl)pyridin-3-yl)amino)-1H-pyrazole-3-carboxamide] | 100 to 1000 |  |  | 100 to 1000
14 | Cc1csc2nnc(-c3ccc(Nc4cn(-c5c(Cl)cccc5Cl)nc4C(N)=O)cn3)n12 [compound 475, 1-(2,6-dichlorophenyl)-4-((6-(5-methylthiazolo[2,3-c][1,2,4]triazol-3-yl)pyridin-3-yl)amino)-1H-pyrazole-3-carboxamide] | 100 to 1000 |  |  | 100 to 1000

Now from value to molecule:

Row | IC50 [1] [nM] | IC50 [2] [nM] | IC50 [3] [nM] | IC50 [4] [nM] | SMILES
15 | 100 to 1000 | 100 to 1000 | 100 to 1000 | 100 to 1000 | NC(=O)c1nn(-c2c(F)cccc2F)cc1Nc1nc2ccccc2[nH]1 [compound 11, 4-((1H-benzo[d]imidazol-2-yl)amino)-1-(2,6-difluorophenyl)-1H-pyrazole-3-carboxamide]
16 | 100 to 1000 | 100 to 1000 | 100 to 1000 | 100 to 1000 | NC(=O)c1nn(-c2c(F)cccc2F)cc1Nc1cccc(C(=O)N2CCOCC2)c1 [compound 18, 1-(2,6-difluorophenyl)-4-((3-(morpholine-4-carbonyl)phenyl)amino)-1H-pyrazole-3-carboxamide]
17 | 10 to 100 | 100 to 1000 | 100 to 1000 | 10 to 100 | CC(C)(C)NC(=O)c1ccc(Nc2cn(-c3c(Cl)cccc3Cl)nc2C(N)=O)cc1 [compound 26, 4-((4-(tert-butylcarbamoyl)phenyl)amino)-1-(2,6-dichlorophenyl)-1H-pyrazole-3-carboxamide]
18 | < 10 | 10 to 100 | 10 to 100 | 100 to 1000 | Cc1ccnnc1-c1ccc(Nc2cn(-c3c(Cl)cccc3Cl)nc2C(N)=O)cc1 [compound 45, 1-(2,6-dichlorophenyl)-4-((4-(4-methylpyridazin-3-yl)phenyl)amino)-1H-pyrazole-3-carboxamide]
19 | 10 to 100 | 100 to 1000 | 100 to 1000 | 100 to 1000 | CCn1ncnc1-c1ccc(Nc2cn(-c3c(Cl)cccc3Cl)nc2C(N)=O)cc1 [compound 47, 1-(2,6-dichlorophenyl)-4-((4-(1-ethyl-1H-1,2,4-triazol-5-yl)phenyl)amino)-1H-pyrazole-3-carboxamide]
20 | < 10 |  |  | 10 to 100 | NC(=O)c1nn(-c2c(Cl)cccc2Cl)cc1Nc1ccc(C(=O)N2CCS(=O)(=O)CC2)nc1 [compound 463, 1-(2,6-dichlorophenyl)-4-((6-(1,1-dioxidothiomorpholine-4-carbonyl)pyridin-3-yl)amino)-1H-pyrazole-3-carboxamide]
21 | < 10 |  |  | < 10 | NC(=O)c1nn(-c2c(Cl)cccc2Cl)cc1Nc1ccc(C(=O)N2CCSCC2)cc1 [compound 467, 1-(2,6-dichlorophenyl)-4-((4-(thiomorpholine-4-carbonyl)phenyl)amino)-1H-pyrazole-3-carboxamide]
22 | 100 to 1000 |  |  | 100 to 1000 | Cc1cc2nnc(-c3ccc(Nc4cn(-c5c(Cl)cccc5Cl)nc4C(N)=O)cn3)n2c(C)n1 [compound 470, 1-(2,6-dichlorophenyl)-4-((6-(5,7-dimethyl-[1,2,4]triazolo[4,3-c]pyrimidin-3-yl)pyridin-3-yl)amino)-1H-pyrazole-3-carboxamide]
23 | 10 to 100 |  |  | 10 to 100 | Cc1cccc2ncc(-c3ccc(Nc4cn(-c5c(Cl)cccc5Cl)nc4C(N)=O)cn3)n12 [compound 473, 1-(2,6-dichlorophenyl)-4-((6-(5-methylimidazo[1,2-a]pyridin-3-yl)pyridin-3-yl)amino)-1H-pyrazole-3-carboxamide]
24 | 100 to 1000 |  |  | 10 to 100 | N#Cc1cccc2nnc(-c3ccc(Nc4cn(-c5c(Cl)cccc5Cl)nc4C(N)=O)cn3)n12 [compound 476, 4-((6-(5-cyano-[1,2,4]triazolo[4,3-a]pyridin-3-yl)pyridin-3-yl)amino)-1-(2,6-dichlorophenyl)-1H-pyrazole-3-carboxamide]
